Experimental data reported in the supplement of paper PMC8612539.
In brackets after ≈: the same amount, converted by molar mass.

System: Histophilus somni
Assay: minimum inhibitory concentration (MIC)
Protocol: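 Broth microdilution MIC (Sensititre BOPO7F bovine plate, CLSI methods) of 19 antimicrobials against field isolates of P. multocida, M. haemolytica, H. somni (deep nasopharyngeal swabs) and E. coli, Enterococcus spp. (rectal swabs) from weaned dairy heifers. Incubation 16-24 h at 35 C. MIC is the lowest concentration preventing visible growth. Values with <= or > lie at the tested range limits. Trimethoprim-sulfamethoxazole is given as the trimethoprim component of a 1:19 mixture.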

CC1(C)S[C@@H]2[C@H](NC(=O)[C@H](N)c3ccccc3)C(=O)N2[C@H]1C(=O)O [Ampicillin]
Conditions	minimum inhibitory concentration [µg/mL]
isolate (source animal id): 3	≤ 0.25
isolate (source animal id): 4	0.5 (≈ 1.43 µM)
isolate (source animal id): 7	≤ 0.25
isolate (source animal id): 14	≤ 0.25
isolate (source animal id): 15	≤ 0.25
isolate (source animal id): 17	≤ 0.25
isolate (source animal id): 18	≤ 0.25
isolate (source animal id): 20	≤ 0.25
isolate (source animal id): 23	≤ 0.25
isolate (source animal id): 45	≤ 0.25
isolate (source animal id): 53	≤ 0.25
isolate (source animal id): 83	≤ 0.25
isolate (source animal id): 88	≤ 0.25
isolate (source animal id): 92	≤ 0.25
isolate (source animal id): 93	≤ 0.25
isolate (source animal id): 99	≤ 0.25
isolate (source animal id): 100	≤ 0.25
isolate (source animal id): 105	≤ 0.25
isolate (source animal id): 107	≤ 0.25
isolate (source animal id): 108	≤ 0.25
isolate (source animal id): 109	≤ 0.25
isolate (source animal id): 110	≤ 0.25
isolate (source animal id): 117	≤ 0.25
isolate (source animal id): 121	≤ 0.25
isolate (source animal id): 123	≤ 0.25
isolate (source animal id): 124	≤ 0.25
isolate (source animal id): 127	≤ 0.25
isolate (source animal id): 128	≤ 0.25
isolate (source animal id): 130	> 16
isolate (source animal id): 132	≤ 0.25
isolate (source animal id): 135	≤ 0.25
isolate (source animal id): 140	≤ 0.25
isolate (source animal id): 141	≤ 0.25
isolate (source animal id): 142	≤ 0.25
isolate (source animal id): 144	≤ 0.25
isolate (source animal id): 146	≤ 0.25
isolate (source animal id): 147	≤ 0.25
isolate (source animal id): 151	≤ 0.25
isolate (source animal id): 153	≤ 0.25
isolate (source animal id): 154	≤ 0.25
isolate (source animal id): 156	≤ 0.25
isolate (source animal id): 157	≤ 0.25
isolate (source animal id): 176	≤ 0.25
isolate (source animal id): 183	≤ 0.25
isolate (source animal id): 186	≤ 0.25
isolate (source animal id): 196	≤ 0.25
isolate (source animal id): 198	≤ 0.25
isolate (source animal id): 200	≤ 0.25
isolate (source animal id): 206	≤ 0.25
isolate (source animal id): 208	≤ 0.25
isolate (source animal id): 210	≤ 0.25
isolate (source animal id): 212	≤ 0.25
isolate (source animal id): 215	≤ 0.25
isolate (source animal id): 216	≤ 0.25
isolate (source animal id): 218	≤ 0.25
isolate (source animal id): 219	≤ 0.25
isolate (source animal id): 224	≤ 0.25
isolate (source animal id): 228	≤ 0.25
isolate (source animal id): 230	≤ 0.25
isolate (source animal id): 233	≤ 0.25
isolate (source animal id): 238	≤ 0.25
isolate (source animal id): 239	≤ 0.25
isolate (source animal id): 241	≤ 0.25
isolate (source animal id): 242	≤ 0.25
isolate (source animal id): 243	≤ 0.25
isolate (source animal id): 245	≤ 0.25
isolate (source animal id): 246	≤ 0.25
isolate (source animal id): 247	≤ 0.25
isolate (source animal id): 248	≤ 0.25
isolate (source animal id): 250	≤ 0.25
isolate (source animal id): 251	≤ 0.25
isolate (source animal id): 252	≤ 0.25
isolate (source animal id): 254	≤ 0.25
isolate (source animal id): 258	≤ 0.25
isolate (source animal id): 259	≤ 0.25
isolate (source animal id): 262	≤ 0.25
isolate (source animal id): 264	≤ 0.25
isolate (source animal id): 265	4 (≈ 11.4 µM)
isolate (source animal id): 266	≤ 0.25
isolate (source animal id): 267	≤ 0.25
isolate (source animal id): 269	≤ 0.25
isolate (source animal id): 271	≤ 0.25
isolate (source animal id): 272	4 (≈ 11.4 µM)
isolate (source animal id): 274	≤ 0.25
isolate (source animal id): 276	≤ 0.25
isolate (source animal id): 278	≤ 0.25
isolate (source animal id): 280	1 (≈ 2.86 µM)
isolate (source animal id): 281	≤ 0.25
isolate (source animal id): 283	≤ 0.25
isolate (source animal id): 288	≤ 0.25
isolate (source animal id): 291	≤ 0.25
isolate (source animal id): 292	≤ 0.25
isolate (source animal id): 296	≤ 0.25
isolate (source animal id): 306	≤ 0.25
isolate (source animal id): 336	≤ 0.25
isolate (source animal id): 337	≤ 0.25
isolate (source animal id): 341	≤ 0.25

CO/N=C(\C(=O)N[C@@H]1C(=O)N2C(C(=O)O)=C(CSC(=O)c3ccco3)CS[C@H]12)c1csc(N)n1 [Ceftiofur]
Conditions	minimum inhibitory concentration [µg/mL]
isolate (source animal id): 3	≤ 0.25
isolate (source animal id): 4	≤ 0.25
isolate (source animal id): 7	≤ 0.25
isolate (source animal id): 14	≤ 0.25
isolate (source animal id): 15	≤ 0.25
isolate (source animal id): 17	≤ 0.25
isolate (source animal id): 18	≤ 0.25
isolate (source animal id): 20	≤ 0.25
isolate (source animal id): 23	≤ 0.25
isolate (source animal id): 45	≤ 0.25
isolate (source animal id): 53	≤ 0.25
isolate (source animal id): 83	≤ 0.25
isolate (source animal id): 88	≤ 0.25
isolate (source animal id): 92	≤ 0.25
isolate (source animal id): 93	≤ 0.25
isolate (source animal id): 99	≤ 0.25
isolate (source animal id): 100	≤ 0.25
isolate (source animal id): 105	≤ 0.25
isolate (source animal id): 107	≤ 0.25
isolate (source animal id): 108	≤ 0.25
isolate (source animal id): 109	≤ 0.25
isolate (source animal id): 110	≤ 0.25
isolate (source animal id): 117	≤ 0.25
isolate (source animal id): 121	≤ 0.25
isolate (source animal id): 123	≤ 0.25
isolate (source animal id): 124	≤ 0.25
isolate (source animal id): 127	≤ 0.25
isolate (source animal id): 128	≤ 0.25
isolate (source animal id): 130	≤ 0.25
isolate (source animal id): 132	≤ 0.25
isolate (source animal id): 135	≤ 0.25
isolate (source animal id): 140	≤ 0.25
isolate (source animal id): 141	≤ 0.25
isolate (source animal id): 142	≤ 0.25
isolate (source animal id): 144	≤ 0.25
isolate (source animal id): 146	≤ 0.25
isolate (source animal id): 147	≤ 0.25
isolate (source animal id): 151	≤ 0.25
isolate (source animal id): 153	≤ 0.25
isolate (source animal id): 154	≤ 0.25
isolate (source animal id): 156	≤ 0.25
isolate (source animal id): 157	≤ 0.25
isolate (source animal id): 176	≤ 0.25
isolate (source animal id): 183	≤ 0.25
isolate (source animal id): 186	≤ 0.25
isolate (source animal id): 196	≤ 0.25
isolate (source animal id): 198	≤ 0.25
isolate (source animal id): 200	≤ 0.25
isolate (source animal id): 206	≤ 0.25
isolate (source animal id): 208	≤ 0.25
isolate (source animal id): 210	≤ 0.25
isolate (source animal id): 212	≤ 0.25
isolate (source animal id): 215	≤ 0.25
isolate (source animal id): 216	≤ 0.25
isolate (source animal id): 218	≤ 0.25
isolate (source animal id): 219	≤ 0.25
isolate (source animal id): 224	≤ 0.25
isolate (source animal id): 228	≤ 0.25
isolate (source animal id): 230	≤ 0.25
isolate (source animal id): 233	≤ 0.25
isolate (source animal id): 238	≤ 0.25
isolate (source animal id): 239	≤ 0.25
isolate (source animal id): 241	≤ 0.25
isolate (source animal id): 242	≤ 0.25
isolate (source animal id): 243	≤ 0.25
isolate (source animal id): 245	≤ 0.25
isolate (source animal id): 246	≤ 0.25
isolate (source animal id): 247	≤ 0.25
isolate (source animal id): 248	≤ 0.25
isolate (source animal id): 250	≤ 0.25
isolate (source animal id): 251	≤ 0.25
isolate (source animal id): 252	≤ 0.25
isolate (source animal id): 254	≤ 0.25
isolate (source animal id): 258	≤ 0.25
isolate (source animal id): 259	≤ 0.25
isolate (source animal id): 262	≤ 0.25
isolate (source animal id): 264	≤ 0.25
isolate (source animal id): 265	≤ 0.25
isolate (source animal id): 266	≤ 0.25
isolate (source animal id): 267	≤ 0.25
isolate (source animal id): 269	≤ 0.25
isolate (source animal id): 271	≤ 0.25
isolate (source animal id): 272	≤ 0.25
isolate (source animal id): 274	≤ 0.25
isolate (source animal id): 276	≤ 0.25
isolate (source animal id): 278	≤ 0.25
isolate (source animal id): 280	≤ 0.25
isolate (source animal id): 281	≤ 0.25
isolate (source animal id): 283	≤ 0.25
isolate (source animal id): 288	≤ 0.25
isolate (source animal id): 291	≤ 0.25
isolate (source animal id): 292	≤ 0.25
isolate (source animal id): 296	≤ 0.25
isolate (source animal id): 306	≤ 0.25
isolate (source animal id): 336	≤ 0.25
isolate (source animal id): 337	≤ 0.25
isolate (source animal id): 341	≤ 0.25

CN1C[C@@H]2C[C@H]1CN2c1cc2c(cc1F)c(=O)c(C(=O)O)cn2C1CC1 [Danofloxacin]
Conditions	minimum inhibitory concentration [µg/mL]
isolate (source animal id): 3	≤ 0.12
isolate (source animal id): 4	≤ 0.12
isolate (source animal id): 7	≤ 0.12
isolate (source animal id): 14	≤ 0.12
isolate (source animal id): 15	≤ 0.12
isolate (source animal id): 17	≤ 0.12
isolate (source animal id): 18	≤ 0.12
isolate (source animal id): 20	≤ 0.12
isolate (source animal id): 23	≤ 0.12
isolate (source animal id): 45	≤ 0.12
isolate (source animal id): 53	≤ 0.12
isolate (source animal id): 83	≤ 0.12
isolate (source animal id): 88	≤ 0.12
isolate (source animal id): 92	≤ 0.12
isolate (source animal id): 93	≤ 0.12
isolate (source animal id): 99	≤ 0.12
isolate (source animal id): 100	≤ 0.12
isolate (source animal id): 105	≤ 0.12
isolate (source animal id): 107	≤ 0.12
isolate (source animal id): 108	≤ 0.12
isolate (source animal id): 109	≤ 0.12
isolate (source animal id): 110	≤ 0.12
isolate (source animal id): 117	≤ 0.12
isolate (source animal id): 121	≤ 0.12
isolate (source animal id): 123	≤ 0.12
isolate (source animal id): 124	≤ 0.12
isolate (source animal id): 127	≤ 0.12
isolate (source animal id): 128	≤ 0.12
isolate (source animal id): 130	≤ 0.12
isolate (source animal id): 132	≤ 0.12
isolate (source animal id): 135	≤ 0.12
isolate (source animal id): 140	≤ 0.12
isolate (source animal id): 141	≤ 0.12
isolate (source animal id): 142	≤ 0.12
isolate (source animal id): 144	≤ 0.12
isolate (source animal id): 146	≤ 0.12
isolate (source animal id): 147	≤ 0.12
isolate (source animal id): 151	≤ 0.12
isolate (source animal id): 153	≤ 0.12
isolate (source animal id): 154	≤ 0.12
isolate (source animal id): 156	≤ 0.12
isolate (source animal id): 157	≤ 0.12
isolate (source animal id): 176	≤ 0.12
isolate (source animal id): 183	≤ 0.12
isolate (source animal id): 186	≤ 0.12
isolate (source animal id): 196	≤ 0.12
isolate (source animal id): 198	≤ 0.12
isolate (source animal id): 200	≤ 0.12
isolate (source animal id): 206	≤ 0.12
isolate (source animal id): 208	≤ 0.12
isolate (source animal id): 210	≤ 0.12
isolate (source animal id): 212	≤ 0.12
isolate (source animal id): 215	≤ 0.12
isolate (source animal id): 216	≤ 0.12
isolate (source animal id): 218	≤ 0.12
isolate (source animal id): 219	≤ 0.12
isolate (source animal id): 224	≤ 0.12
isolate (source animal id): 228	≤ 0.12
isolate (source animal id): 230	≤ 0.12
isolate (source animal id): 233	≤ 0.12
isolate (source animal id): 238	≤ 0.12
isolate (source animal id): 239	≤ 0.12
isolate (source animal id): 241	≤ 0.12
isolate (source animal id): 242	≤ 0.12
isolate (source animal id): 243	≤ 0.12
isolate (source animal id): 245	≤ 0.12
isolate (source animal id): 246	≤ 0.12
isolate (source animal id): 247	≤ 0.12
isolate (source animal id): 248	≤ 0.12
isolate (source animal id): 250	≤ 0.12
isolate (source animal id): 251	≤ 0.12
isolate (source animal id): 252	≤ 0.12
isolate (source animal id): 254	≤ 0.12
isolate (source animal id): 258	≤ 0.12
isolate (source animal id): 259	≤ 0.12
isolate (source animal id): 262	≤ 0.12
isolate (source animal id): 264	≤ 0.12
isolate (source animal id): 265	≤ 0.12
isolate (source animal id): 266	≤ 0.12
isolate (source animal id): 267	≤ 0.12
isolate (source animal id): 269	≤ 0.12
isolate (source animal id): 271	≤ 0.12
isolate (source animal id): 272	≤ 0.12
isolate (source animal id): 274	≤ 0.12
isolate (source animal id): 276	≤ 0.12
isolate (source animal id): 278	≤ 0.12
isolate (source animal id): 280	≤ 0.12
isolate (source animal id): 281	≤ 0.12
isolate (source animal id): 283	≤ 0.12
isolate (source animal id): 288	≤ 0.12
isolate (source animal id): 291	≤ 0.12
isolate (source animal id): 292	≤ 0.12
isolate (source animal id): 296	≤ 0.12
isolate (source animal id): 306	≤ 0.12
isolate (source animal id): 336	≤ 0.12
isolate (source animal id): 337	≤ 0.12
isolate (source animal id): 341	≤ 0.12
